A melting point compilation (Tetko et al.; mined from patent text by program, amines drawn as free bases though some values may be those of a salt)

Row | Compound | melting point [°C]
1 | CCOC=C(C(=O)OCC)C(=O)c1ccc(I)cc1Cl | 237 to 240
2 | CC(C)(C)C1=C(c2cc3cc(O)ccc3o2)OCC1(C)C | 129 to 130
3 | CN(C)C(=O)Sc1ccc(C(F)(F)F)cc1C(=O)c1ccc(C#N)cc1 | 159
4 | COC(=O)[C@@H]1C[C@H](OC(=O)c2ccccc2)C(=O)[C@H]2[C@@]1(C)CC[C@H]1C(=O)O[C@H](c3ccoc3)C[C@]21C | 165 to 170
5 | CC(=O)c1cccc2cc3cccc(C(C)=O)c3cc12 | 178 to 181
6 | CCCCCCc1cc2c(cc1/C=C/c1ccc(C(=O)O)s1)C(C)(C)CCC2(C)C | 164 to 165
7 | CCCn1nc2c(N)nc3ccccc3c2c1CCCC1=CCN(Cc2ccccc2)C1 | 150 to 152
8 | C#CCc1c(Cl)nc(N)nc1Cl | 211 to 212
9 | COc1cc2cc(C(=O)C(C)CC#N)sc2cc1OC (stereo unspecified) | 148 to 150
10 | COc1ccc(-n2c(C)cc(=O)[nH]c2=S)cc1 | 248 to 249
11 | Cc1cnc2c([N+](=O)[O-])ccc(Cl)c2c1Cl | 136 to 138
12 | O=c1oc(=O)n(Cc2ccc(F)cc2)c2ccccc12 | 142 to 145
13 | CCCCCCCNC(=O)Nc1ccc(C(C)C)cc1C(=O)NCC1CCN(C(c2ccccc2)c2ccccc2)CC1 | 179 to 180
14 | O=[N+]([O-])c1ccc(-n2cncn2)cc1F | 90 to 91
15 | CCCCCCCCCCCCCCCCCCOc1cc(OCCCOc2ccc(S(C)(=O)=O)cc2)cc(C(=O)OC)c1 | 101 to 102
16 | CC1(C)C2CC[C@@]1(C)C(C(=O)N1C(=O)OC(C#CC3CC3)(C(F)(F)F)c3cc(Cl)ccc31)C2 (stereo partly specified) | 164 to 165
17 | CN1Cc2c(-c3nc(CCl)cs3)ncn2-c2ccc(F)c(Cl)c2C1=O | 234 to 235
18 | NS(=O)(=O)c1cc2cc(O)c(O)cc2s1 | 233 to 235
19 | COc1ccc(C(=O)C2=C(O)C(=O)N(c3nnc(C(F)(F)F)s3)C2c2ccc(C(C)(C)C)cc2)cc1 (stereo unspecified) | 271
20 | COC(=O)COc1cc(C)ccc1C=O | 63 to 64
21 | CC(=O)Nc1nc2ccc(S(=O)(=O)n3c(CCC(=O)O)cc4cc(C(F)(F)F)ccc43)cc2s1 | 290 to 292
22 | CN(C)CCC1CCC2(CC1)Nc1ccc(Cl)cc1S(=O)(=O)N2 (stereo unspecified) | 234 to 235
23 | Nc1ncnc2c1c(-c1ccc(Oc3ccccc3)cc1)cn2CCN1C(=O)c2ccccc2C1=O | 111 to 112
24 | CC1(C)CCc2c1cc(C=O)c(O)c2Br | 77.5 to 78.5

Row | Compound | melting point [°C]
25 | CC(Oc1ccccc1Cl)c1nnc(C2C(O)NC(=O)N2C)s1 (stereo unspecified) | 122 to 124
26 | CC1(C)CCC(C)(C)c2c(OCc3ccc(F)cc3)cc(C(=O)c3ccc4cc(C(=O)O)ccc4c3)cc21 | 277
27 | COc1cc(C(=O)c2[nH]c3ccccc3c2C)cc([N+](=O)[O-])c1O | 195 to 197
28 | NC(=O)NN=Cc1ccc(Oc2ccncc2)cc1 | 212 to 213
29 | Nc1c(OC[C@@H]2CO2)cccc1[N+](=O)[O-] | 107 to 109
30 | COc1ccc(C=CS(=O)(=O)Cl)cc1 | 65 to 67
31 | CC(=O)Nc1ccc(OC(=O)C2CCc3c(c4ccccc4n3C(=O)c3ccccc3)C2)cc1 (stereo unspecified) | 166 to 168
32 | Nc1ccc(Cc2nc3ccccc3o2)cc1 | 105 to 106
33 | Cc1c(C(=O)OCc2ccccc2)sc2ccc3[nH]c4c(c3c12)CN(C)CC4 | 174
34 | Cc1cc(-n2cc(-c3ccc(F)cc3F)nc2C)cc2ccc(=O)[nH]c12 | 262 to 265
35 | O=C1OC(Cc2ccccc2)CN1Cc1ccccc1 (stereo unspecified) | 81 to 82
36 | O=C(NCCCc1ccncc1)N(CC=Cc1ccccc1)CCC12CC3CC(CC(C3)C1)C2 | 130 to 134
37 | C#C[C@@](C)(O)CCC1=C(C)C(=O)C(C)=C(C)C1=O | 80 to 82
38 | CS(=O)(=O)NCc1cc(Br)cc2[nH]c(=O)c(=O)[nH]c12 | > 300
39 | Cn1cc(-c2cccc(C(F)(F)F)c2)c(=O)c(-c2cccc(C(F)(F)F)c2)c1 | 152 to 154
40 | CCn1cc(C(=O)O)c(=O)c2cc(F)c(N3CCN(O)CC3)c(F)c21 | 253 to 260
41 | COC(=O)c1ccc(C#CC(O)c2cc(C(C)(C)C)c(OCOCC[Si](C)(C)C)c(C(C)(C)C)c2)cc1 (stereo unspecified) | 91 to 92
42 | O=C1NC2C(CC(O)C(O)C2O)c2cc3c(c(O)c21)OCO3 (stereo unspecified) | 182
43 | FC(F)(F)c1ccc(-c2cc(Nc3ccc4ccc(Cl)nc4c3)ncn2)cc1 | 233
44 | O=C(Nc1cccc(S(=O)(=O)N2CCOCC2)c1)c1cnn2c(C(F)(F)F)cc(-c3ccc(Cl)cc3)nc12 | 144
45 | Cc1nn2ccc3c(c2c1CO)CCO3 | 173 to 174
46 | O=C1NC(=S)C(=Cc2cc(O)c(O)c([N+](=O)[O-])c2)O1 | 245
47 | CCc1c(Oc2cnc(N)nc2N)cc(Br)c2c1OCCO2 | 291 to 293
48 | CCC#COc1ccc(S(=O)(=O)NC(CSC)C(=O)NO)cc1 (stereo unspecified) | 128 to 130

Row | Compound | melting point [°C]
49 | CC1=CC(OC(=O)C=Cc2ccc(O)cc2)C(O)C(C)(C)CC1=O (stereo unspecified) | 176 to 177
50 | O=C(c1ccc(Nc2ccnc3cc(C(F)(F)F)ccc23)cc1)N1CCN(S(=O)(=O)c2ccc(F)cc2)CC1 | 251 to 253
51 | N#Cc1cc(-c2ccc(Cl)c(Cl)c2)[nH]c1Br | > 200
52 | COc1cc2ncc(C#N)c(Nc3ccc(C(F)(F)F)cc3)c2cc1OC | 116 to 118
53 | CN(C(=O)c1cccc(C(F)(F)F)c1)c1ccccc1CCCCC(=O)O | 81 to 83
54 | CCc1c2c(nn1-c1ccccc1)c(=O)[nH]c1ccccc12 | 331 to 334
55 | CCOC(=O)C1=C(C)NC(COCc2cccnc2)=C(C(=O)OCC)C1c1ccccc1[N+](=O)[O-] (stereo unspecified) | 133 to 135
56 | COc1ncccc1-c1cncc(OC2SCC(OC(C)=O)C(OC(C)=O)C2OC(C)=O)c1 (stereo unspecified) | 167
57 | CCCCc1nc2c(N)nc3ccc(OCC(=O)N4CCCCC4)cc3c2n1C | 222 to 223
58 | CCOc1cc(C)ccc1NC1CCN(CCCCNC(=O)c2ccc(-c3ccc(C(F)(F)F)cc3)cc2)CC1 | 162
59 | CCCc1cc2ccccn2c1C(=O)c1ccc(O)c(Cl)c1 | 165
60 | CC(C)(C)c1cc(C(c2ccccc2)c2cc(C(C)(C)C)cc(C(C)(C)C)c2O)c(O)c(C(C)(C)C)c1 | 165 to 167
61 | O=C1NOc2cccc3nc4c(c(c23)C1Cc1ccccc1)CCCC4 (stereo unspecified) | 166 to 168
62 | O=S(=O)(c1ccccc1)c1ccc2c(c1)[C@@H](O)[C@H](Br)CCO2 (relative stereo) | 190 to 193
63 | NCc1ccc(CNC(=O)[C@@H](CCCNC(N)=N[N+](=O)[O-])NC(=O)C(c2ccccc2)c2ccccc2)cc1 | 198 to 199
64 | C#CCn1c(-c2ccccc2)nc(C#C)c(CC)c1=O | 134 to 136
65 | CCOC(=O)C1=C(COCC(O)CCO)NC(C)=C(C(=O)OC)C1c1cccc(Cl)c1Cl (stereo unspecified) | 86 to 89
66 | CCS(=O)(=O)N[C@H]1CC[C@H](CCN2CCN(c3nccc4c3OCC4)CC2)CC1 | 190
67 | C#CC1(C)OC(=O)Nc2ccc(-c3cccc(Cl)c3)cc21 (stereo unspecified) | 185 to 186
68 | O=C1CNc2ccccc2CN1 | 167 to 170
69 | COC(=O)C(Br)c1ccc(OCCCOc2ccc(Cl)cc2)cc1 (stereo unspecified) | 49 to 53
70 | Nc1ncc(-c2cccc(-n3cnc4cc(-c5ccoc5)ccc43)c2)cn1 | 222 to 223
71 | CCCCCCCCCCCCc1ccccc1C(Sc1nnnn1CCCC(=O)O)C(=O)O (stereo unspecified) | 86 to 88
72 | CCCN1C(=O)N2CC(CC)N=C2c2c1ncn2C (stereo unspecified) | 124 to 126

Row | Compound | melting point [°C]
73 | CCN1CC(=O)N(C)c2cc(Nc3ncc(Cl)c(Nc4ccc(OC)cc4-n4cccn4)n3)c(OC)cc2C1 | 105 to 107
74 | C#Cc1cccc(N2C(=O)c3ccc([N+](=O)[O-])cc3C2=O)c1 | 257 to 259
75 | O=C(CC1CC1)NC[C@H]1CN(c2ccc3c(c2)CCCc2cn[nH]c2-3)C(=O)O1 | 212 to 215
76 | CSc1nc(C)ccc1NC(=O)CSc1nc2ccccc2[nH]1 | 192 to 193
77 | OCC1C=CC(n2cnc3c(O)ncnc32)O1 (stereo unspecified) | > 310
78 | CCCCC/C=C\C/C=C\CCCCCCCC(=O)Nc1c(OC)cc(OC)cc1OC | 87 to 89
79 | COC(=N)NC(=O)Nc1ccc(Cl)cc1 | 115 to 117
80 | Cn1nc(-c2c(F)cccc2Cl)nc1-c1ccc(Cl)nc1 | 118 to 120
81 | O=C(O)c1cc(Sc2nc3cc(Cl)ccc3[nH]2)c2[nH]c(=O)[nH]c2c1 | 326 to 330
82 | O=c1c2ccccc2[nH]c(=S)n1CCN1CCC(Nc2nc3ccccc3n2Cc2ccc(F)cc2)CC1 | 198
83 | COc1ccc(-n2nc(Sc3cccc(C)c3)c(C)c(C#N)c2=O)cc1 | 121 to 122
84 | COCCNC(=O)c1c(O)c2cc(Cl)ccc2n(C)c1=N | 209 to 211
85 | CCc1nn(C2CCCC2)c2nc(COS(C)(=O)=O)nc(OS(C)(=O)=O)c12 | 114 to 116
86 | Cc1c(NC(=O)C(CSC(=O)Cc2cccs2)Cc2ccccc2)cccc1C(=O)O (stereo unspecified) | 134 to 137
87 | O=C(O)COc1c(Br)cc(-c2c3ccccc3c(Br)c3oc4ccccc4c23)c(O)c1Br | 194 to 240
88 | Cc1cc(C(=S)CN=[N+]=[N-])ccc1O | 124 to 129
89 | COC(=O)c1cc(OCc2nc(-c3ccccc3)sc2C)no1 | 89 to 90
90 | CSc1ncc2c(n1)N(Cc1ccc(F)c(F)c1)c1ccccc1-n1nnnc1-2 | 281 to 283
91 | CCOC(=O)c1c(N(CC)CC)c2ccc(C)nc2n(CC)c1=O | 79 to 82
92 | COc1nc(Oc2ccccc2C(=O)O)nc(N(C)C)n1 | 148 to 149
93 | Cc1ccc2c(Cl)cc(C(=O)NCCCc3ccccc3)c(O)c2n1 | 109 to 111
94 | CCCc1c(O)n2c3c(=O)n(C)c(=O)n(C)c3nc2n(Cc2ccccc2)c1=O | 217
95 | CCC(CC)(CC(=O)Nc1ccc2ccc(OCc3ccc4ccccc4n3)cc2c1)C(=O)O | 190 to 191
96 | O=c1c2c(Cc3ccc(F)cc3)n[nH]c2c2cccnc2n1-c1cccc(C(F)(F)F)c1 | 243 to 245
